Assay results taken from the ASAP Discovery antiviral challenge data (2025).
Converted amounts (≈) assume the structure as drawn. “And” between values parts separate entries of the source, which are not always exact repeats. Equal values may be shown once.

Key:
[1] = mdck_mdr1
[2] = not given; remark: listed apart in the source
[3] = human; liver_microsomes
[4] = mouse; liver_microsomes

| Compound | solubility kinetic | Papp [1] | logD [2] | microsomal CLint [3] | microsomal CLint [4] |
| --- | --- | --- | --- | --- | --- |
| CCOc1cccc(-c2ccc(S(=O)(=O)Nc3ccc(Cl)cc3C(=O)O)cc2)c1 | 392 µM (≈ 169 µg/mL) | 6.22 ×10⁻⁶ cm/s | 2.8 | 119 µL/min/mg | – |
| Cc1c(C(=O)Nc2cc(-c3cccnc3)ccn2)cc(C2CC2)n1C | 176 µM (≈ 58.5 µg/mL) | 13.5 ×10⁻⁶ cm/s | – | – | 388 µL/min/mg |
| Cc1cc(OCc2ccccc2)ccc1NS(=O)(=O)c1ccc(Cl)cc1C(=O)O | 394 µM (≈ 170 µg/mL) | 4.61 ×10⁻⁶ cm/s | 2.7 | 22.3 µL/min/mg | – |
| Cn1c(=O)[nH]c2c(C(=O)Nc3ccc4c(c3)CNC4)cc(Br)cc21 | 161 µM (≈ 62.3 µg/mL) | 0.805 ×10⁻⁶ cm/s | 0.5 | – | 12.5 µL/min/mg |
| N#Cc1cccc(-c2nc3c(C(=O)Nc4ccc5c(c4)CNC5)cc(F)cc3[nH]2)c1 | 3 µM (≈ 1.19 µg/mL) | – | 2 | – | 22 µL/min/mg |
| NCCc1ccc(NC(=O)c2cc(Cl)cc(NC(=O)OCc3ccccc3)c2)cc1 | 88 µM (≈ 37.3 µg/mL) | 0.791 ×10⁻⁶ cm/s | 2.9 | 17.5 µL/min/mg | – |
| NCc1cccc(NC(=O)CN(C(=O)OCc2ccccc2)c2ccc(OCc3ccccc3)cc2)c1 | 56 µM (≈ 27.8 µg/mL) | 0.899 ×10⁻⁶ cm/s | 2.9 | 11 µL/min/mg | – |
| NCc1cccc(NC(=O)c2cc(Cl)cc(CN)c2)c1 | 375 µM (≈ 109 µg/mL) | 1.96 ×10⁻⁶ cm/s | -0.6 | 21 µL/min/mg | – |
| NCc1cccc(NC(=O)c2cc(OCc3ccccc3)ccc2CNC(=O)OCc2ccccc2)c1 | 14 µM (≈ 6.94 µg/mL) | 1.75 ×10⁻⁶ cm/s | 2.8 | 21 µL/min/mg | – |
| Nc1nc(-c2ccccc2)nc2[nH]nc(Nc3ccc(C(F)(F)F)cc3)c12 | 2 µM (≈ 0.741 µg/mL) | 1.76 ×10⁻⁶ cm/s | – | – | 11.2 µL/min/mg |
| O=C(Nc1cc(Cl)cc(C(=O)Nc2ccc3c(c2)CNC3)c1)OCc1ccccc1 | 35 µM (≈ 14.8 µg/mL) | 1.25 ×10⁻⁶ cm/s | 2.8 | 12.7 µL/min/mg | – |
| O=C(Nc1cc(Cl)cc(C(=O)Nc2cccc(-n3nn[nH]c3=O)c2)c1)OCc1ccccc1 | 107 µM (≈ 49.7 µg/mL) | 9.46 ×10⁻⁶ cm/s | 3.8 | 11.2 µL/min/mg | – |
| O=C(Nc1ccc2c(c1)CNC2)c1cc(Cl)cc2[nH]ncc12 | 279 µM (≈ 87.3 µg/mL) | 1.8 ×10⁻⁶ cm/s | 0.9 | – | 243 µL/min/mg |
| O=C(Nc1ccc2c(c1)CNC2)c1cc(Cl)cc2ccncc12 | 181 µM (≈ 58.6 µg/mL) | 3.42 ×10⁻⁶ cm/s | 0.6 | – | 24.5 µL/min/mg |
| O=C(Nc1ccc2c(c1)CNC2)c1cc(Cl)cc2cn[nH]c12 | 184 µM (≈ 57.5 µg/mL) | 4.63 ×10⁻⁶ cm/s | 1.2 | – | 54 µL/min/mg |
| O=C(Nc1ccc2c(c1)CNC2)c1cc(F)cc2[nH]ncc12 | – | 1.59 ×10⁻⁶ cm/s | – | – | 180 µL/min/mg |
| O=C(O)c1cc(Cl)c(F)cc1S(=O)(=O)Nc1ccc(Oc2ccccc2Cl)cc1 | 396 µM (≈ 181 µg/mL) | 4.29 ×10⁻⁶ cm/s | 3.3 | 67.4 µL/min/mg | – |
| O=C(O)c1cc(Cl)ccc1NS(=O)(=O)c1ccc(-c2ccccc2Cl)cc1 | 397 µM (≈ 168 µg/mL) | 7.59 ×10⁻⁶ cm/s | 3.6 | 343 µL/min/mg | – |
| O=C(O)c1cc(Cl)ccc1S(=O)(=O)NC1CCN(c2nc(C3CC3)cc(C(F)(F)F)n2)CC1 | 380 µM (≈ 192 µg/mL) | 3.65 ×10⁻⁶ cm/s | 2.8 | 26.3 µL/min/mg | – |

| Compound | solubility kinetic | Papp [1] | logD [2] | microsomal CLint [3] | microsomal CLint [4] |
| --- | --- | --- | --- | --- | --- |
| C=CC[C@H](Nc1cccc(-c2nn[nH]n2)c1)c1cc(Cl)cc(NC(=O)OCc2ccccc2)c1 (racemic) | 332 µM (≈ 158 µg/mL) | 1.24 ×10⁻⁶ cm/s | 4.1 | 65.5 µL/min/mg | – |
| CC(C)NC(=O)[C@H](Nc1ccc2c(c1)CNC2)c1cc(Cl)cc2[nH]c(-c3ccccc3)nc12 (racemic) | 154 µM (≈ 70.8 µg/mL) | 0.432 ×10⁻⁶ cm/s | 2.9 | 23.2 µL/min/mg | – |
| CC[C@H](Cc1nnn[nH]1)c1ccc(NC(=O)c2cc(Cl)cc(NC(=O)OCc3ccccc3)c2)cc1 (racemic) | 60 µM (≈ 30.3 µg/mL) | 2.79 ×10⁻⁶ cm/s | 4.1 | 24.9 µL/min/mg | – |
| CNC(=O)[C@H](Nc1cc(Cl)cc(NC(=O)OCc2ccccc2)c1)c1cccc(-c2nn[nH]n2)c1 (racemic) | 333 µM (≈ 164 µg/mL) | 1.39 ×10⁻⁶ cm/s | 2.2 | 21.3 µL/min/mg | – |
| COc1ccc([C@H](Cc2nnn[nH]2)NC(=O)c2ncnc3[nH]ccc23)cc1 (racemic) | 395 µM (≈ 144 µg/mL) | 1.39 ×10⁻⁶ cm/s | -0.1 | 5 µL/min/mg | – |
| Cc1cc(-c2ccc([C@H](NC(=O)OCc3ccccc3)C(=O)Nc3cccc(CN)c3)cc2)cs1 (racemic) | 8 µM (≈ 3.88 µg/mL) | 1.19 ×10⁻⁶ cm/s | – | 29.5 µL/min/mg | – |
| N#C[C@H](Nc1ccc2c(c1)CNC2)c1cc(Cl)cc2[nH]ncc12 (racemic) | 297 µM (≈ 96.2 µg/mL) | 1.1 ×10⁻⁶ cm/s | 0.9 | 10.3 µL/min/mg | – |
| N#C[C@H](Nc1cccc(-c2nn[nH]n2)c1)c1cc(Cl)cc(NC(=O)OCc2ccccc2)c1 (racemic) | 344 µM (≈ 158 µg/mL) | 3.23 ×10⁻⁶ cm/s | 3.2 | 13.6 µL/min/mg | – |
| N#C[C@H](Nc1cccc(C(=O)O)c1)c1cc(Cl)cc2[nH]ncc12 (racemic) | 112 µM (≈ 36.6 µg/mL) | 1.22 ×10⁻⁶ cm/s | 0.6 | 12 µL/min/mg | – |
| NCc1cccc(NC(=O)C[C@H](NC(=O)OCc2ccccc2)c2ccc(OCc3ccccc3)c(Br)c2)c1 (racemic) | 21 µM (≈ 12.4 µg/mL) | 0.783 ×10⁻⁶ cm/s | – | 12.4 µL/min/mg | – |
| NCc1cccc([C@H]2C[C@@H]2c2cc(Cl)cc(NC(=O)OCc3ccccc3)c2)c1 (racemic) | 50 µM (≈ 20.3 µg/mL) | 1.66 ×10⁻⁶ cm/s | – | 11.4 µL/min/mg | – |
| O=C(N[C@H]1[C@H]2CCCCC[C@H]2[C@H]1C(=O)Nc1cccc(C2CCNCC2)c1)OCc1ccccc1 (racemic) | 49 µM (≈ 23.3 µg/mL) | 0.395 ×10⁻⁶ cm/s | 2.8 | 31.3 µL/min/mg | – |
| CC(C)[C@H](Nc1ncnc2[nH]c(-c3cnn(CC(=O)N(C)C)c3)cc12)c1ccc2c(c1)OCCO2 (single isomer, unassigned) | – | 2.05 ×10⁻⁶ cm/s and 1.62 ×10⁻⁶ cm/s | 2.9 and 3 | – | 35 µL/min/mg and 45 µL/min/mg |
| CC(C)[C@H](Nc1ncnc2[nH]c(C(=O)N[C@H]3CCN(C)C3)cc12)c1ccc2c(c1)S(=O)(=O)CCC2 (single isomer, unassigned) | 396 µM and 392 µM | 0.175 ×10⁻⁶ cm/s and 0.325 ×10⁻⁶ cm/s | 1.4 and 1.5 | 11 µL/min/mg and 26 µL/min/mg | – |
| CC(C)[C@H](Nc1ncnc2[nH]ccc12)c1ccc2c(c1)S(=O)(=O)CCC2 (single isomer, unassigned) | 374 µM and 386 µM | 5.5 ×10⁻⁶ cm/s and 3.55 ×10⁻⁶ cm/s | 2.7 and 2.5 | 57 µL/min/mg and 21 µL/min/mg | – |
| CCNC(=O)c1cc2c(N[C@H](c3ccc4c(c3)OCCO4)C(C)C)ncnc2[nH]1 (single isomer, unassigned) | – | 2.7 ×10⁻⁶ cm/s and 2.9 ×10⁻⁶ cm/s | 3.6 | – | 48 µL/min/mg and 72 µL/min/mg |
| CNC(=O)c1c[nH]c2ncnc(N[C@H](c3ccc4c(c3)S(=O)(=O)CCC4)C(C)C)c12 (single isomer, unassigned) | 336 µM and 204 µM | 1.61 ×10⁻⁶ cm/s and 0.857 ×10⁻⁶ cm/s | 2.7 and 2.6 | 258 µL/min/mg and 108 µL/min/mg | – |
| CNC(=O)c1cccc(-c2cc3c(N[C@H](c4ccc5c(c4)S(=O)(=O)CCC5)C(C)C)ncnc3[nH]2)c1 (single isomer, unassigned) | 13 µM and 15 µM | 0.502 ×10⁻⁶ cm/s and 0.627 ×10⁻⁶ cm/s | 3.8 and 3.7 | 746 µL/min/mg and 455 µL/min/mg | – |
